Experimental data: BindingDB's records for patent WO2023019327 (Mindset Pharma, 2023)

These compounds were tested against 5-hydroxytryptamine receptor 2A (Homo sapiens, UniProt P28223) (assay: FLIPR Calcium 6 Assay).
Method: The dye is diluted with assay buffer (20mM HEPES in 1x HBSS, PH7.4); Probenecid was added to the final concentration of 5 mM; […]. Vortexed vigorously for 1-2 minutes. Medium is removed from cell plate by flicking the cell plate on towel papers. […] The cell plate is placed on plate shaker, the plate was agitated at 600rpm for 2 minutes. The plate is incubated at 37°C for 2 hours followed by additional 15-minute incubation at 25°C. 3*compound in assay buffer is prepared: a. Reference compounds are diluted to required concentration with DMSO. The compounds were added to a 384-well compound plate; b. Serial dilutions are performed; c. […] Add […] assay buffer to the compound plate; f.

Sequence of 5-hydroxytryptamine receptor 2A (P28223 whole entry): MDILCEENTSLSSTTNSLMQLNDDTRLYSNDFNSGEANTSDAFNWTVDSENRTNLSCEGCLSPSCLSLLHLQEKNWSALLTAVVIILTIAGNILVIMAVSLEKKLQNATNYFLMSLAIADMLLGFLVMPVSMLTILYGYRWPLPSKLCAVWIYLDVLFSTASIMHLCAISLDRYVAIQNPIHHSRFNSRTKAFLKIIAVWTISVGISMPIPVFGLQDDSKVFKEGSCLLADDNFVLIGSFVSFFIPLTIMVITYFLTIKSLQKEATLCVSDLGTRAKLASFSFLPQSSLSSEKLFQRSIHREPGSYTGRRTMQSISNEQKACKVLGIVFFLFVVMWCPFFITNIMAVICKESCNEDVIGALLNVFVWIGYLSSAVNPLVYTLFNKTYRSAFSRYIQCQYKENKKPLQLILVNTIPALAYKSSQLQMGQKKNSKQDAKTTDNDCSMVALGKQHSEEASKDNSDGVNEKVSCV

Going from `CN(C)CCc1c[nH]c2ccccc12` [2-(1H-indol-3-yl)-N,N-dimethylethanamine] to `CCCCC/C=C\C/C=C\CCCCCCCC(=O)N(C)CCc1c[nH]c2ccccc12` [WO2023019367, Compound I-1], the EC50 rises from < 10 µM to > 30 µM. The first is the more potent here.

`CCCCC/C=C\C/C=C\CCCCCCCC(=O)N(C)CCc1c[nH]c2ccc(OC)cc12` [WO2023019367, Compound I-21] and `CCCCC/C=C\C/C=C\CCCCCCCC(=O)N1CCCC1Cc1c[nH]c2ccc(OC)cc12` (centres undefined) [WO2023019367, Compound I-55] cannot be ordered by EC50: > 30 µM for the first, > 30 µM for the second.

`CCCCC/C=C\C/C=C\CCCCCCCC(=O)N1CCCC1Cc1c[nH]c2ccccc12` (centres undefined) [WO2023019367, Compound I-46] and `CCCCC/C=C\C/C=C\CCCCCCCC(=O)N1CCC(c2c[nH]c3ccccc23)C1` (centres undefined) [WO2023019367, Compound I-84] cannot be ordered by EC50: > 30 µM for the first, > 30 µM for the second.

`CCCCC/C=C\C/C=C\CCCCCCCC(=O)N1CCC(c2c[nH]c3ccc(OC)cc23)C1` (centres undefined) [WO2023019367, Compound I-81] and `CCCCC/C=C\C/C=C\CCCCCCCC(=O)N1CCC(c2c[nH]c3ccc(OC)cc23)CC1` [WO2023019367, Compound I-88] cannot be ordered by EC50: > 30 µM for the first, > 30 µM for the second.

For `CCCCC/C=C\C/C=C\CCCCCCCC(=O)N1CCC(c2c[nH]c3ccccc23)CC1` [WO2023019367, Compound I-87], the EC50 was > 30 µM.
